Earlier results in patent EP0076676B1, “Process for using endorphins as antitumour agents” (TNI PHARMACEUTICALS, INC., priority 1981, dated 1986).

System: phenylalanyl-t RNA synthetase
Conditions: observed by Laidow et al, J.B.C. 255 (1980)

beta-endorphin
inhibition of phenylalanyl-t RNA synthetase: inhibit
